From patent US3943154A, “Acylamides of beta-cyano-ethenesulfonyl substituted aminoarenes” (Sanitized Incorporated, priority 1973, dated 1976) come the findings set out here.

Holding throughout (type): cell-based
Assay [1] relates to Bacillus subtilis ATCC 9525. Description: button assay, antibacterial activity. Conditions: Bacillus subtilis, ATCC9525, lowest concentration showing a clear zone of inhibition, 24 hours at 37° C, read-out: Antibacterial Activity B.subtilis, minimum inhibitory concentration. The procedure:
(§1) In the test program, the minimum inhibitory concentrations of the respective test compounds against various Gram positive and Gram negative bacteria were determined, employing the "button assay" method. The test organisms utilized were standard cultures of Staphylococcus aureus ATCC 6538 DR, a penicillin resistant Gram positive bacterium; Bacillus subtilis ATCC 9525, a spore-forming Gram positive bacillus; and Salmonella typhosa ATCC 6539, a Gram negative bacterium.
(§2) In the tests the respective compounds were dissolved in a suitable solvent, usually acetone or dimethylsulfoxide, to give solutions with known concentrations of active material. The highest concentration was ordinarily 1000 ppm (parts per million) [0.1%], and dilutions were made in suitable steps down to 1 ppm. Penicillin test buttons of filter paper having a diameter of 13 mm (socalled "Peniassay" buttons) were added to each solution within a test tube and left submerged for five minutes. They were then removed and left to dry on paper towels under sterile conditions. A laminar flow sterile cabinet equipped with ultraviolet lamps operating under positive air pressure was utilized for this purpose.
(§3) An 18-24 hour old nutrient broth culture (standard 1.5% nutrient agar) prepared in conventional manner from a slant and having passed through at least three consecutive daily transfers was used for inoculation. Melted and cooled sterile agar (45° C) was inoculated with the respective broth cultures by addition of 20 ml broth per liter of agar. The agar was then dispensed into Petri dishes (20 ml per plate) under sterile conditions and allowed to harden.
The test buttons were placed on the surface of the hardened agar and the plates incubated for 24 hours at 37° C. Where, on inspection, a clear zone of inhibition appeared around the button, inhibition of growth was presumed. Where growth touched the button there was no inhibition. For each of the test compounds, the lowest concentration showing a clear zone is reported as the inhibitory concentration in the following table.
(§4) The button assay and agar incorporation tests were also utilized to determine the corresponding inhibitory concentrations of various control materials, viz., the following well known commercial antimicrobials and fungicides: hexachlorophene, tribromosalicylanilide, trichlorocarbanilide,Captan (N-(trichloromethylthio)4cyclohexene-1,2-dicarboximide) and Zineb (zinc ethylenebis[dithiocarbamate]). The minimum inhibitory concentration of each of the various control materials against the respective organisms is indicated in Table IV below: […]

Assay [2] concerns Aspergillus niger ATCC 6257. The assay can be described thus: agar incorporation test, antifungal activity. To be noted: Aspergillus niger, ATCC6257, 96 h, lowest concentration showing no growth or sporulation, four days at 28° C, read-out: Antifungal Activity A. niger, minimum inhibitory concentration. The procedure:
The anti-fungal activity of the test compounds was determined employing the "agar incorporation" technique, utilizing spores from Aspergillus niger ATCC 6257 as a representative organism. Test solutions were prepared as described above in acetone or dimethylsulfoxide. A source of carbon agar such as Mycophil Agar was used. The agar was melted and cooled and placed in a constant temperature water bath at 45° C + 3° C. About 13-14 ml of the agar was then poured into a sterile Petri dish, the required amount of test solution to give the desired concentration immediately added thereto, and the dish rotated and swirled by hand to obtain a uniform mixture before the agar hardened.
The hardened plates were inoculated with the test organism by fishing spores from a 7-14 day old slant with the inocculating needle and spotting the spores on the plates, usually in several places. The inoculated plates were incubated for four days in an incubator maintained at 28° C +2° C and with a relative humidity of 95%+.
The lowest concentration of each test compound showing no growth or sporulation of the test organism was taken as the minimum inhibitory concentration and is reported in the following tabulation.
as §4

The subject of assay [3] is Salmonella typhosa ATCC 6539. The assay can be described thus: button assay, antibacterial activity. Conditions: Salmonella enterica, read-out: Antibacterial Activity S.typhosa, minimum inhibitory concentration. The procedure:
as §1
The highest concentration was ordinarily 1000 ppm (parts per million) [0.1%], and dilutions were made in suitable steps down to 1 ppm. Penicillin test buttons of filter paper having a diameter of 13 mm (socalled "Peniassay" buttons) were added to each solution within a test tube and left submerged for five minutes. They were then removed and left to dry on paper towels under sterile conditions. A laminar flow sterile cabinet equipped with ultraviolet lamps operating under positive air pressure was utilized for this purpose.
as §3
(§5) The test buttons were placed on the surface of the hardened agar and the plates incubated for 24 hours at 37° C. Where, on inspection, a clear zone of inhibition appeared around the button, inhibition of growth was presumed. Where growth touched the button there was no inhibition. For each of the test compounds, the lowest concentration showing a clear zone is reported as the inhibitory concentration in the following table. […]

Assay [4] relates to Staphylococcus aureus ATCC 6538 DR. Description: button assay, antibacterial activity. To be noted: Staphylococcus aureus, ATCC6538, 24 h, read-out: Antibacterial Activity S.aureus, minimum inhibitory concentration. The method, then: as §1, §2, §3, §5
The mark [5] stands for this setting: button assay, lowest concentration showing a clear zone of inhibition, 24 hours at 37° C.

Values after ≈ are worked out from the molar mass of the structure shown. Like-named read-outs stand apart in the source and are kept apart here.

On to `CC(=O)Nc1ccc(S(=O)(=O)C=CC#N)cc1` [3-(4-acetamidobenzenesulfonyl)acrylonitrile, reference compound], for which the MIC in assay [1] is 20 µg/mL (≈ 79.9 µM); in assay [2], above 1000 µg/mL; in assay [3] (24 h) it was 20 µg/mL (≈ 79.9 µM); in assay [4] it was 50 µg/mL (≈ 200 µM).

Take `N#CC=CS(=O)(=O)c1ccc(N)cc1` [3-(4-aminobenzenesulfonyl)acrylonitrile, reference compound]: the MIC in assay [1] amounted to 20 µg/mL (≈ 96 µM); in assay [2], 300 µg/mL (≈ 1440 µM); in assay [3] (24 h), 20 µg/mL (≈ 96 µM); in assay [4], 20 µg/mL (≈ 96 µM).

As for `O=C1C2CC=CCC2C(=O)N1SC(Cl)(Cl)Cl` (stereo not drawn) [Captan, N-(trichloromethylthio)4cyclohexene-1,2-dicarboximide, reference compound], the MIC in assay [1] is 100 µg/mL (≈ 333 µM); in assay [2], 300 µg/mL (≈ 998 µM); in assay [3] (setting [5]), 25 µg/mL (≈ 83.2 µM); in assay [4], 25 µg/mL (≈ 83.2 µM).

In the case of `CS(=O)(=O)Nc1ccc(S(=O)(=O)C=CC#N)cc1` [Example 1, 3-(4-methanesulfonylamidobenzenesulfonyl)acrylonitrile], the MIC is 100 µg/mL (≈ 349 µM) in assay [1], above 1000 µg/mL in assay [2], 1000 µg/mL (≈ 3490 µM) in assay [3] (24 h) and 300 µg/mL (≈ 1050 µM) in assay [4].

As to `CCS(=O)(=O)Nc1ccc(S(=O)(=O)C=CC#N)cc1` [Example 2, 3-(4-ethanesulfonamidobenzenesulfonyl)acrylonitrile], the MIC in assay [1] was 20 µg/mL (≈ 66.6 µM); in assay [2], above 1000 µg/mL; in assay [3] (24 h) it was 20 µg/mL (≈ 66.6 µM); in assay [4], 100 µg/mL (≈ 333 µM).

For `CCCCS(=O)(=O)Nc1ccc(S(=O)(=O)C=CC#N)cc1` [Example 3, 3-(4-butanesulfonamidobenzenesulfonyl)acrylonitrile], the MIC in assay [1] was 20 µg/mL (≈ 60.9 µM); in assay [2], above 1000 µg/mL; in assay [3] (24 h), 50 µg/mL (≈ 152 µM); in assay [4], 50 µg/mL (≈ 152 µM).

For the compound `CCCCCCCCCCCCCCCCS(=O)(=O)Nc1ccc(S(=O)(=O)C=CC#N)cc1` [Example 4, 3-([…])ACRYLONITRILE], the MIC was 20 µg/mL (≈ 40.3 µM) in assay [1], 500 µg/mL (≈ 1010 µM) in assay [2], 50 µg/mL (≈ 101 µM) in assay [3] (24 h) and 20 µg/mL (≈ 40.3 µM) in assay [4].

For the compound `C=CS(=O)(=O)Nc1ccc(S(=O)(=O)C=CC#N)cc1` [Example 9, 3-(4-[…])ACRYLONITRILE], the MIC is 10 µg/mL (≈ 33.5 µM) in assay [1], 100 µg/mL (≈ 335 µM) in assay [2], 50 µg/mL (≈ 168 µM) in assay [3] (24 h) and 20 µg/mL (≈ 67 µM) in assay [4].

With `N#CC=CS(=O)(=O)c1ccc(NS(=O)(=O)C=Cc2ccccc2)cc1` [Example 10, 3-[4-(2-phenylethenesulfonamido)benzenesulfonyl]acrylonitrile], the MIC in assay [1] was 5 µg/mL (≈ 13.4 µM); in assay [2], above 1000 µg/mL; in assay [3] (24 h) it was 5 µg/mL (≈ 13.4 µM); in assay [4], 5 µg/mL (≈ 13.4 µM).

For the compound `N#CC=CS(=O)(=O)c1ccc(NS(=O)(=O)c2ccccc2)cc1` [Example 11, 3-(4-benzene-sulfonamidobenzenesulfonyl)acrylonitrile], the MIC was 50 µg/mL (≈ 144 µM) in assay [1], above 1000 µg/mL in assay [2], 50 µg/mL (≈ 144 µM) in assay [3] (24 h) and 20 µg/mL (≈ 57.4 µM) in assay [4].

For `Cc1ccc(S(=O)(=O)C=CC#N)cc1NS(=O)(=O)c1ccccc1` [Example 12, 3-(3-benzenesulfonamido-4-methylbenzenesulfonyl)acrylonitrile], the MIC is 100 µg/mL (≈ 276 µM) in assay [1], above 1000 µg/mL in assay [2], 100 µg/mL (≈ 276 µM) in assay [3] (24 h) and 100 µg/mL (≈ 276 µM) in assay [4].

Turning to `Cc1ccc(S(=O)(=O)Nc2ccc(S(=O)(=O)C=CC#N)cc2)cc1` [Example 13, 3-[4-(4-methylbenzenesulfonamido)benzenesulfonyl]acrylonitrile], the MIC in assay [1] is 5 µg/mL (≈ 13.8 µM); in assay [2], above 1000 µg/mL; in assay [3] (24 h), 5 µg/mL (≈ 13.8 µM); in assay [4], 5 µg/mL (≈ 13.8 µM).

In the case of `Cc1ccccc1S(=O)(=O)Nc1ccc(S(=O)(=O)C=CC#N)cc1` [Example 16, 3-[4-(2-METHYLBENZENESULFONAMIDO)BENZENESULFONYL]ACRYLONITRILE], the MIC in assay [1] was 20 µg/mL (≈ 55.2 µM); in assay [2], above 1000 µg/mL; in assay [3] (24 h) it was 20 µg/mL (≈ 55.2 µM); in assay [4], 20 µg/mL (≈ 55.2 µM).

Consider `CCCCCCCCCCCCc1ccc(S(=O)(=O)Nc2ccc(S(=O)(=O)C=CC#N)cc2)cc1` [Example 17], for which the MIC in assay [1] is 10 µg/mL (≈ 19.4 µM); in assay [2], 300 µg/mL (≈ 581 µM); in assay [3] (24 h), 10 µg/mL (≈ 19.4 µM); in assay [4], 5 µg/mL (≈ 9.68 µM).

Take `Cc1cc(C)c(S(=O)(=O)Nc2ccc(S(=O)(=O)C=CC#N)cc2)c(C)c1` [Example 18, 3-[4-(2,4,6-trimethylbenzenesulfonamido)benzenesulfonyl]acrylonitrile]: the MIC in assay [1] was found to be 10 µg/mL (≈ 25.6 µM); in assay [2], 100 µg/mL (≈ 256 µM); in assay [3] (24 h), 10 µg/mL (≈ 25.6 µM); in assay [4], 5 µg/mL (≈ 12.8 µM).

Consider `CC(C)c1cc(C(C)C)c(S(=O)(=O)Nc2ccc(S(=O)(=O)C=CC#N)cc2)c(C(C)C)c1` [Example 19, 3-[4-(2,4,6-tri-isopropylbenzenesulfonamido)benzenesulfonyl]acrylonitrile], for which the MIC in assay [1] was 1000 µg/mL (≈ 2110 µM); in assay [2], above 1000 µg/mL; in assay [3] (24 h), 1000 µg/mL (≈ 2110 µM); in assay [4], 1000 µg/mL (≈ 2110 µM).

Regarding `N#CC=CS(=O)(=O)c1ccc(NS(=O)(=O)c2ccc(Cl)cc2)cc1` [Example 20, 3-[4-(4-chlorobenzenesulfonamido)benzenesulfonyl]acrylonitrile], the MIC in assay [1] is 5 µg/mL (≈ 13.1 µM); in assay [2], above 1000 µg/mL; in assay [3] (24 h) it was 10 µg/mL (≈ 26.1 µM); in assay [4], 20 µg/mL (≈ 52.2 µM).

As to `N#CC=CS(=O)(=O)c1ccc(NS(=O)(=O)c2ccc([N+](=O)[O-])cc2)cc1` [Example 22.1, 3-[4-(4-nitrobenzenesulfonamido)benzenesulfonyl]acrylonitrile], the MIC in assay [1] was 50 µg/mL (≈ 127 µM); in assay [2], above 1000 µg/mL; in assay [3] (24 h) it was 50 µg/mL (≈ 127 µM); in assay [4] it was 100 µg/mL (≈ 254 µM).

Consider `N#CC=CS(=O)(=O)c1ccc(NS(=O)(=O)c2ccccc2[N+](=O)[O-])cc1` [Example 22.3, 3-[4-(2-nitrobenzenesulfonamido)benzenesulfonyl]acrylonitrile], for which the MIC in assay [1] is around 50 µg/mL (≈ 127 µM); in assay [2], above 1000 µg/mL; in assay [3] (24 h), 100 µg/mL (≈ 254 µM); in assay [4] it was 10 µg/mL (≈ 25.4 µM).

As for `N#CC=CS(=O)(=O)c1ccc(NS(=O)(=O)c2ccc([N+](=O)[O-])cc2[N+](=O)[O-])cc1` [Example 23.1, 3-[4-(2,4-dinitrobenzenesulfonamido)benzenesulfonyl]acrylonitrile], the MIC in assay [1] came out at 50 µg/mL (≈ 114 µM); in assay [2], 100 µg/mL (≈ 228 µM); in assay [3] (setting [5]) it was 50 µg/mL (≈ 114 µM); in assay [4], 5 µg/mL (≈ 11.4 µM).

With `N#CC=CS(=O)(=O)c1ccc(NS(=O)(=O)c2ccc(Cl)c([N+](=O)[O-])c2)cc1` [Example 23.2, 3-[4-(4-chloro-3-nitrobenzenesulfonamido)benzenesulfonyl]acrylonitrile], the MIC was 300 µg/mL (≈ 701 µM) in assay [1], 1000 µg/mL (≈ 2340 µM) in assay [2], 100 µg/mL (≈ 234 µM) in assay [3] (24 h) and 100 µg/mL (≈ 234 µM) in assay [4].
